Molecules are shown by their SMILES. pKi: −log10 of the molar value.

This test concerns the target T1, 5HT6-human recombinant receptor (Homo sapiens, UniProt P50406).
T1 construct: purchased Receptor Biology; host or cells: HEK-293 cell membranes
Description: Binding to serotonin receptor 5-HT6 ([3H]-LSD radioligand displacement). The conditions noted are these: membranes of HEK-293 cells expressing the receptor; radioligand [3H]-LSD 2.7 nM; 60 minutes at 37° C; triplicate. The procedure:
I) Binding to Serotonin Receptor 5-HT6
Cell membranes of HEK-293 cells expressing the 5HT6-human recombinant receptor were supplied by Receptor Biology. In said membranes the receptor concentration is 2.18 pmol/mg protein and the protein concentration is 9.17 mg/ml. The experimental protocol follows the method of B. L. Roth et al. [B. L. Roth, S. C. Craigo, M. S. Choudhary, A. Uluer, F. J. Monsma, Y. Shen, H. Y. Meltzer, D. R. Sibley: Binding of Typical and Atypical Antipsychotic Agents to 5-Hydroxytryptamine-6 and Hydroxytryptamine-7 Receptors. The Journal of Pharmacology and Experimental Therapeutics, 1994, 268, 1403] with the following slight changes. The respective part of the literature description is hereby incorporated by reference and forms part of the disclosure.
The commercial membrane is diluted (1:40 dilution) with the binding buffer: 50 mM Tris-HCl, 10 mM MgCl2, 0.5 mM EDTA (pH 7.4). The radioligand used is [^3H]-LSD at a concentration of 2.7 nM with a final volume of 200 μl. Incubation is initiated by adding 100 μl of membrane suspension, (≈22.9 μg membrane protein), and is prolonged for 60 minutes at a temperature of 37° C. The incubation is ended by fast filtration in a Brandel Cell Harvester through fiber glass filters made by Schleicher & Schuell G F 3362 pretreated with a solution of polyethylenimine at 0.5%. The filters are washed three times with three milliliters of buffer Tris-HCl 50 mM pH 7.4. The filters are transferred to flasks and 5 ml of Ecoscint H liquid scintillation cocktail are added to each flask. The flasks are allowed to reach equilibrium for several hours before counting with a Wallac Winspectral 1414 scintillation counter. Non-specific binding is determined in the presence of 100 μM of serotonin. Tests were made in triplicate. The inhibition constants (Ki, nM) were calculated by non-linear regression analysis using the program EBDA/LIGAND described in Munson and Rodbard, Analytical Biochemistry, 1980, 107, 220, the respective part of which is hereby incorporated by reference and forms part of the disclosure.
The binding of the nitro-substituted phenyl-piperazine compounds to the 5-HT6 receptor was determined as described above.
For orientation: Displacement assays read how much labelled ligand stays bound in the presence of the test substance.

T1 sequence (P50406 whole entry): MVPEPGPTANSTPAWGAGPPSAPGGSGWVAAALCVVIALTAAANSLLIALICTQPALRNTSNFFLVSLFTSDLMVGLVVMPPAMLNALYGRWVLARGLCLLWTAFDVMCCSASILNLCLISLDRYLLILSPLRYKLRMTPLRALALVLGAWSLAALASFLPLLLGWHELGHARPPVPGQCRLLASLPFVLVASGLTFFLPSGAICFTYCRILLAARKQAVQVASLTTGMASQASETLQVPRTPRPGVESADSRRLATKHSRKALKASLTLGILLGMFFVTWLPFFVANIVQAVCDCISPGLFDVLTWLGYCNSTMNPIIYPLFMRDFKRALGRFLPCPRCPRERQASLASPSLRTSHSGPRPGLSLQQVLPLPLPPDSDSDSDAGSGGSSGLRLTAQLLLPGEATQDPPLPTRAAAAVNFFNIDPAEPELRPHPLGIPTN

In the case of `O=[N+]([O-])c1ccc(N2CCNCC2)cc1NCc1cccnc1` [Example 26, (2-Nitro-5-piperazin-1-yl-phenyl)-pyridin-3-ylmethyl-amine], the pKi (in general, the Ki on a negative log10 scale, so that one unit is a factor of ten) was 5.82.
`CN1CCN(c2ccc([N+](=O)[O-])c(NC(c3ccccc3)c3ccccc3)c2)CC1` [Example 29, Benzhydryl-[5-(4-methyl-piperazin-1-yl)-2-nitro-phenyl]-amine]: the pKi was 5.35.
As for `Cc1ccccc1OCCNc1cc(N2CCNCC2)ccc1[N+](=O)[O-]` [Example 13, (2-Nitro-5-piperazin-1-yl-phenyl)-(2-o-tolyloxy-ethyl)-amine], the pKi was 6.79.
As to `O=[N+]([O-])c1ccc(N2CCN(CCO)CC2)cc1NCCc1ccccc1` [Example 12, 2-[4-(4-Nitro-3-phenethylamino-phenyl)-piperazin-1-yl]-ethanol], the pKi is 5.20.
Take `Cc1cc(C)n(-c2cc(N3CCN(C)CC3)ccc2[N+](=O)[O-])n1` [Example 21, 1-[3-(3,5-Dimethyl-pyrazol-1-yl)-4-nitro-phenyl]-4-methyl-piperazine]: the pKi is 6.60.
For `CN1CCN(c2ccc([N+](=O)[O-])c(NCc3cccnc3)c2)CC1` [Example 24, [5-(4-Methyl-piperazin-1-yl)-2-nitro-phenyl]-pyridin-3-ylmethyl-amine], the pKi is 5.90.
Turning to `CC(Nc1cc(N2CCN(C)CC2)ccc1[N+](=O)[O-])c1ccccc1` (stereo not drawn) [Example 59, [5-(4-Methyl-piperazin-1-yl)-2-nitro-phenyl]-(1-phenyl-ethyl)-amine], the pKi is 7.92.
As for `O=[N+]([O-])c1ccc(N2CCNCC2)cc1NCc1ccccc1` [Example 22, Benzyl-(2-nitro-5-piperazin-1-yl-phenyl)-amine], the figure is 7.56.
For the molecule `CN1CCN(c2ccc([N+](=O)[O-])c(-n3nc(-c4ccccc4)c4ccccc4c3=O)c2)CC1` [Example 16, 2-[5-(4-Methyl-piperazin-1-yl)-2-nitro-phenyl]-4-phenyl-2H-phthalazin-1-one], the pKi was 6.14.
As for `CC1CN(c2ccc([N+](=O)[O-])c(NCCOc3ccc(Cl)cc3)c2)CC(C)N1` (stereo not drawn) [Example 17, [2-(4-Chloro-phenoxy)-ethyl]-[5-(3,5-dimethyl-piperazin-1-yl)-2-nitro-phenyl]-amine], the pKi was 5.30.
As for `O=[N+]([O-])c1ccc(N2CCNCC2)cc1NCCOc1ccccc1` [Example 30, (2-Nitro-5-piperazin-1-yl-phenyl)-(2-phenoxy-ethyl)-amine], the figure is 6.94; as for `CN1CCN(c2ccc([N+](=O)[O-])c(NCCc3ccccc3)c2)CC1` [Example 23, [5-(4-Methyl-piperazin-1-yl)-2-nitro-phenyl]-phenethyl-amine], 6.93; as for `CN1CCN(c2ccc([N+](=O)[O-])c(NCc3ccc(Cl)cc3)c2)CC1` [Example 56, (4-Chloro-benzyl)-[5-(4-methyl-piperazin-1-yl)-2-nitro-phenyl]-amine], 7.23.
Turning to `CN1CCN(c2ccc([N+](=O)[O-])c(Nn3cccc3)c2)CC1` [Example 5, [5-(4-Methyl-piperazin-1-yl)-2-nitro-phenyl]-pyrrol-1-yl-amine], the pKi was 6.32.
For the molecule `COc1ccc(OCCNc2cc(N3CCN(C)CC3)ccc2[N+](=O)[O-])cc1` [Example 46, [2-(4-Methoxy-phenoxy)-ethyl]-[5-(4-methyl-piperazin-1-yl)-2-nitro-phenyl]-amine], the pKi was 6.61.
For the molecule `CN1CCN(c2ccc([N+](=O)[O-])c(NCCOc3ccc(C(C)(C)C)cc3)c2)CC1` [Example 45, [2-(4-tert-Butyl-phenoxy)-ethyl]-[5-(4-methyl-piperazin-1-yl)-2-nitro-phenyl]-amine], the pKi was 7.10.
As to `CN1CCN(c2ccc([N+](=O)[O-])c(N3CCOCC3)c2)CC1` [Example 15, 4-[5-(4-Methyl-piperazin-1-yl)-2-nitro-phenyl]-morpholine], the pKi was 5.57.
Take `O=[N+]([O-])c1ccc(N2CCNCC2)cc1NCCc1ccccc1` [Example 33, (2-Nitro-5-piperazin-1-yl-phenyl)-phenethyl-amine]: the pKi is 7.48.
Turning to `CN1CCN(c2ccc([N+](=O)[O-])c(NCc3ccco3)c2)CC1` [Example 11, Furan-2-ylmethyl-[5-(4-methyl-piperazin-1-yl)-2-nitro-phenyl]-amine], the pKi is 7.21.
In the case of `CN1CCN(c2ccc([N+](=O)[O-])c(-n3nc(-c4ccccc4)c4ccccc4c3=O)c2)CC1` [Example 31, 2-[5-(4-Methyl-piperazin-1-yl)-2-nitro-phenyl]-4-phenyl-2H-phthalazin-1-one], the pKi was 5.77.
Take `Cc1ccccc1OCCNc1cc(N2CCN(C)CC2)ccc1[N+](=O)[O-]` [Example 55, [5-(4-Methyl-piperazin-1-yl)-2-nitro-phenyl]-(2-o-tolyloxy-ethyl)-amine]: the pKi was 7.58.
As for `O=[N+]([O-])c1ccc(N2CCNCC2)cc1NCCOc1ccc(Cl)cc1` [Example 58, [2-(4-Chloro-phenoxy)-ethyl]-(2-nitro-5-piperazin-1-yl-phenyl)-amine], the figure is 6.54.
As for `O=[N+]([O-])c1ccc(N2CCNCC2)cc1N1CCN(Cc2ccccc2)CC1` [Example 27, 1-Benzyl-4-(2-nitro-5-piperazin-1-yl-phenyl)-piperazine], the figure is 5.42.
With `O=[N+]([O-])c1ccc(N2CCNCC2)cc1NCc1ccco1` [Example 57, Furan-2-ylmethyl-(2-nitro-5-piperazin-1-yl-phenyl)-amine], the pKi is 7.60.
Take `Cc1cc(C)n(-c2cc(N3CCNCC3)ccc2[N+](=O)[O-])n1` [Example 32, 1-[3-(3,5-Dimethyl-pyrazol-1-yl)-4-nitro-phenyl]-piperazine]: the negative logarithm of the Ki (pKi) is 6.32.
In the case of `O=[N+]([O-])c1ccc(N2CCNCC2)cc1NCc1ccc(Cl)cc1` [Example 52, (4-Chloro-benzyl)-(2-nitro-5-piperazin-1-yl-phenyl)-amine], the pKi is 8.08.
Turning to `O=[N+]([O-])c1ccc(N2CCN(Cc3ccccc3)CC2)cc1NCc1ccccc1` [Example 53, Benzyl-[5-(4-benzyl-piperazin-1-yl)-2-nitro-phenyl]-amine], the pKi is 7.46.
Regarding `CN1CCN(c2ccc([N+](=O)[O-])c(Oc3ccccc3)c2)CC1` [Example 7, 1-Methyl-4-(4-nitro-3-phenoxy-phenyl)-piperazine], the pKi was 7.58.
Take `CN1CCN(c2ccc([N+](=O)[O-])c(NCc3ccc(F)cc3)c2)CC1` [Example 2, (4-Fluoro-benzyl)-[5-(4-methyl-piperazin-1-yl)-2-nitro-phenyl]-amine]: the pKi was 6.76.
Consider `COc1ccccc1OCCNc1cc(N2CCN(C)CC2)ccc1[N+](=O)[O-]` [Example 51, [2-(2-Methoxy-phenoxy)-ethyl]-[5-(4-methyl-piperazin-1-yl)-2-nitro-phenyl]-amine], for which the negative-log Ki (pKi) is 7.72.

Source of the values: patent publication US20080176854A1, “Nitro-Substituted Phenyl-Piperazine Compounds, Their Preparation and Use in Medicaments” (Laboratorios Del Dr. Esteve S.A, priority 2004, published 2008).
